Measured values taken from US20200079906A1, “PHOTODYNAMIC THERAPY COMPLEX” (University College Cardiff Consultants Limited, priority 2015, published 2020).
Entries after “also recorded” stand apart in the source; their conditions may differ.

Experiments:
Assay in all cases: Antimicrobial photodynamic protocol, viable cell count after laser exposure
Assay type in all cases: cell-based
[1] = tested on: Methicillin Resistant Staphylococcus aureus (NCTC12493); details: for Antimicrobial activity (Log10 reduction of viable cells): green laser, 5 sec, MRSA NCTC12493
Method: (§1) The organisms used in this study were Escherichia coli (NCTC10418) and Staphylococcus epidermidis (ATCC12228), Pseudomonas aeruginosa (NCIMB10548), Methicillin Resistant Staphylococcus aureus (NCTC12493), Streptococcus pyogenes (ATCC19615) and Acinetobacter baumannii (NCIMB9214); they were stored at −80° C. These organisms were subcultured, when needed, on Brain Heart Infusion (BHI) Agar overnight aerobically at 37° C. The plates were then stored at 4° C. for no more than two weeks. Bacterial suspensions used for the experiments were grown in Brain Heart Infusion (BHI) broth after inoculation with a loopful of cells from a single colony on a BHI plate and incubated aerobically for 24 h at 37° C. statically. These overnight cultures were then diluted 1 in 100 in PBS. The resulting bacterial suspension contained approximately 10^6 CFU/mL. Each cell suspension was used to disperse pure PS, e.g. PBAE-TBO, to concentrations of 0.2 mg/mL or PBAEs-PS derivatives to an equivalent PS concentration.
(§2) 200 μL aliquots of the resulting suspension were immediately poured in a GREINER 96 U-BOTTOM well plate. The well plate was then irradiated with a laser light (633 nm) using a 500 mW red laser (RRL-635 nm-500 mW-1080060, Changchun New Industries Optoelectronics, China) or a 500 mW green laser (MGL-FN-532 nm-500 mW-15097031, Changchun New Industries Optoelectronics, China) for different time periods (between 5 sec to 3 min). The red laser was employed for TBO while the green laser was used for RB and ERY.
(§3) After exposure the bacterial cells (L+S+) were counted through serial dilutions and then plating on BHI Agar. Along this test, different experiments were performed including the testing of dark toxicity (labelled with L−S+), samples exposed uniquely to laser light (L+S−) or samples not expose to either laser light and PBAE (L−S−).
(§4) Through the experiment prepared samples, well plates and inoculated plates were immediately covered with aluminium foil to reduce biased measuring results due to exposure of any light besides the laser. All plates were incubated after the experiment for 24 hours at 37° C. All experiments were performed on three independent cultures.

[2] = tested on: Escherichia coli (NCTC10418); details: E. coli; for Antimicrobial activity (Log10 reduction of viable cells): green laser, 3 min laser exposure
Method: as §1, §2, §3, §4

[3] = tested on: Streptococcus pyogenes (ATCC19615); details: TBO series
Method: as §1, §2, §3, §4

[4] = tested on: Staphylococcus epidermidis (ATCC12228); details: TBO series
Method: as §1, §2, §3, §4

[5] = tested on: Acinetobacter baumannii (NCIMB9214); details: TBO series, A. baumannii
Method: as §1, §2, §3, §4

[6] = tested on: Pseudomonas aeruginosa (NCIMB10548); details: TBO series, P. aeruginosa
Method: as §1, §2, §3, §4

[7] = L+S+, red laser, 0.2 mg/mL TBO equivalent

## O=C([O-])c1c(Cl)c(Cl)c(Cl)c(Cl)c1-c1c2cc(I)c(=O)c(I)c-2oc2c(I)c([O-])c(I)cc12.[Na+].[Na+] [RB, Rose Bengal]
[1]; RB series
  Antimicrobial activity (Log10 reduction of viable cells): exhibit antimicrobial activity
[2]; RB series
  Antimicrobial activity (Log10 reduction of viable cells): exhibit antimicrobial activity

## Cc1cc2nc3ccc(=[N+](C)C)cc-3sc2cc1N.[Cl-] [TBO, Toluidine Blue O]
[1]; TBO series, L+S+, red laser, 0.2 mg/mL TBO equivalent, MRSA
  Antimicrobial effect of laser exposure (reduction of viable cells): tendencies of progressive reduction
[1]; TBO series, L-S+, MRSA
  Cell reduction without irradiation (dark toxicity): did not return any cell reduction
[3]; [7]
  Antimicrobial effect of laser exposure (reduction of viable cells): tendencies of progressive reduction
[3]; L-S+
  Cell reduction without irradiation (dark toxicity): did not return any cell reduction
[4]; [7]
  Antimicrobial effect of laser exposure (reduction of viable cells): tendencies of progressive reduction
[4]; L-S+
  Cell reduction without irradiation (dark toxicity): did not return any cell reduction
[2]; TBO series, L+S+, red laser, 0.2 mg/mL TBO equivalent
  Antimicrobial effect of laser exposure (reduction of viable cells): tendencies of progressive reduction
[2]; TBO series, L-S+
  Cell reduction without irradiation (dark toxicity): did not return any cell reduction
[5]; [7]
  Antimicrobial effect of laser exposure (reduction of viable cells): tendencies of progressive reduction
[5]; L-S+
  Cell reduction without irradiation (dark toxicity): did not return any cell reduction
[6]; [7]
  Antimicrobial effect of laser exposure (reduction of viable cells): tendencies of progressive reduction
[6]; L-S+
  Cell reduction without irradiation (dark toxicity): did not return any cell reduction

## O=C1OC2(c3ccccc31)c1cc(I)c(O)c(I)c1Oc1c2cc(I)c(O)c1I [ERY, Erythrosin B]
[1]; ERY series
  Antimicrobial activity (Log10 reduction of viable cells): exhibit antimicrobial activity; also recorded: not as effective as RB
[2]; ERY series
  Antimicrobial activity (Log10 reduction of viable cells): exhibit antimicrobial activity; also recorded: not as effective as RB
